For assay [1], the target named is T1, BCL6 (Homo sapiens (Human), UniProt P41182). In words: BCL6 TR-FRET assay (BCL6-Avitag-Biotin / BCoR-Cy5 peptide). It counts as binding. Put shortly: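 After 30 min room-temperature preincubation of compound titrations with 2 nM biotinylated BCL6-Avitag, 100 nM Cy5-labelled BCoR peptide plus 2 nM Eu-streptavidin were added and TR-FRET read 2 h later. HEPES pH 7.5/125 mM NaCl buffer with Triton X, glutathione (or DTT) and BSA.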

The target in assay [2] is T1, BCL6. The assay can be described thus: Immunofluorescence high content imaging of BCL6 degradation in T47D cells. It is filed as cell-based. As to conditions: for Dmax: T47D. The gist of the method:
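T47D cells were treated 3 days at 37 °C with an 11-point 3-fold dilution series (top 0.1 or 1 μM), then fixed, permeabilized and immunostained for BCL6 with Alexa-488 secondary, CellMask and Hoechst. BCL6 signal was imaged at 10×, 4 fields/well, with top-hat smoothing.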

SMILES strings stand for the structures.

Consider `CNC(=O)COc1cc2cc(Nc3nc(N4CCN(CCN5CCN(c6ccc7c(c6)C(=O)N(C6CCC(=O)NC6=O)C7=O)CC5)CC4)ncc3Cl)ccc2n(C)c1=O` (centres unmarked) [compound 229, 2-((6-((5-chloro-2-(4-(2-(4-(2-(2,6-dioxopiperidin-3-yl)-1,3-dioxoisoindolin-5-yl)piperazin-1-yl)ethyl)piperazin-1-yl)pyrimidin-4-yl)amino)-1-methyl-2-oxo-1,2-dihydroquinolin-3-yl)oxy)-N-methylacetamide], for which, in assay [1], the EC50 was in the range of 10 to 50 nM. In assay [2], this compound came in with an IC50 of 10 to 50 nM and a Dmax of 50 to 70%.

With `CNC(=O)COc1cc2cc(Nc3nc(N4CCN(CCCN5CCN(c6ccc7c(c6)C(=O)N(C6CCC(=O)NC6=O)C7=O)CC5)CC4)ncc3Cl)ccc2n(C)c1=O` (centres unmarked) [compound 230, 2-((6-((5-chloro-2-(4-(3-(4-(2-(2,6-dioxopiperidin-3-yl)-1,3-dioxoisoindolin-5-yl)piperazin-1-yl)propyl)piperazin-1-yl)pyrimidin-4-yl)amino)-1-methyl-2-oxo-1,2-dihydroquinolin-3-yl)oxy)-N-methylacetamide], the 50% effective concentration (EC50) in assay [1] is less than 10 nM. In assay [2], this compound returned an IC50 of 10 to 50 nM and a maximal degradation (Dmax) of less than 50%.

In assay [1], `CNC(=O)COc1cc2cc(Nc3nc(N4CCN(C)C(COc5cccc6c5C(=O)N(C5CCC(=O)NC5=O)C6=O)C4)ncc3Cl)ccc2n(C)c1=O` (centres unmarked) [compound 231, 2-((6-((5-chloro-2-(3-(((2-(2,6-dioxopiperidin-3-yl)-1,3-dioxoisoindolin-4-yl)oxy)methyl)-4-methylpiperazin-1-yl)pyrimidin-4-yl)amino)-1-methyl-2-oxo-1,2-dihydroquinolin-3-yl)oxy)-N-methylacetamide] returned a concentration giving a half-maximal response (EC50) of 50 to 100 nM. For the same compound, in assay [2], the half-inhibitory concentration (IC50) was no less than 100 nM.

As for `CNC(=O)COc1cc2cc(Nc3nc(N4CCN(CC5CCN(c6ccc(C(=O)NC7CCC(=O)NC7=O)nc6)CC5)CC4)ncc3Cl)ccc2n(C)c1=O` (centres unmarked) [compound 232, 5-(4-((4-(5-chloro-4-((1-methyl-3-(2-(methylamino)-2-oxoethoxy)-2-oxo-1,2-dihydroquinolin-6-yl)amino)pyrimidin-2-yl)piperazin-1-yl)methyl)piperidin-1-yl)-N-(2,6-dioxopiperidin-3-yl)picolinamide], the half-maximal effective concentration (EC50) in assay [1] is greater than 100 nM. In assay [2], the IC50 is 10 to 50 nM and the Dmax was less than 50%.

Take `CNC(=O)COc1cc2cc(Nc3nc(N4CCN(CC5CCN(c6ccc(C(=O)NC7CCC(=O)NC7=O)c(F)c6)CC5)CC4)ncc3Cl)ccc2n(C)c1=O` (centres unmarked) [compound 233, 4-(4-((4-(5-chloro-4-((1-methyl-3-(2-(methylamino)-2-oxoethoxy)-2-oxo-1,2-dihydroquinolin-6-yl)amino)pyrimidin-2-yl)piperazin-1-yl)methyl)piperidin-1-yl)-N-(2,6-dioxopiperidin-3-yl)-2-fluorobenzamide]: the 50% effective concentration (EC50) in assay [1] was greater than 100 nM. In assay [2], the half-maximal inhibitory concentration (IC50) is no less than 100 nM and the greatest degradation seen (Dmax) was less than 50%.

For the compound `CNC(=O)COc1cc2cc(Nc3nc(N4CCN5CCN(c6ccc7c(c6)C(=O)N(C6CCC(=O)NC6=O)C7=O)CC5C4)ncc3Cl)ccc2n(C)c1=O` (centres unmarked) [compound 234, 2-((6-((5-chloro-2-(8-(2-(2,6-dioxopiperidin-3-yl)-1,3-dioxoisoindolin-5-yl)octahydro-2H-pyrazino[1,2-a]pyrazin-2-yl)pyrimidin-4-yl)amino)-1-methyl-2-oxo-1,2-dihydroquinolin-3-yl)oxy)-N-methylacetamide], the concentration giving a half-maximal response (EC50) in assay [1] is less than 10 nM. In assay [2], this compound yielded a half-maximal inhibitory concentration (IC50) of no less than 100 nM.

For `Cn1c(=O)c(-c2cnoc2)cc2cc(Nc3nc(N4CCC(CN5CCN(c6ccc7c(c6)C(=O)N(C6CCC(=O)NC6=O)C7=O)CC5)CC4)ncc3Cl)ccc21` (centres unmarked) [compound 235, 5-(4-((1-(5-chloro-4-((3-(isoxazol-4-yl)-1-methyl-2-oxo-1,2-dihydroquinolin-6-yl)amino)pyrimidin-2-yl)piperidin-4-yl)methyl)piperazin-1-yl)-2-(2,6-dioxopiperidin-3-yl)isoindoline-1,3-dione], the EC50 in assay [1] is greater than 100 nM. This compound returned an IC50 in assay [2] of no less than 100 nM.

Consider `CC(=O)COc1cc2cc(Nc3nc(N4CCN(CCCN5CCN(c6ccc7c(c6)C(=O)N(C6CCC(=O)NC6=O)C7=O)CC5)CC4)ncc3Cl)ccc2n(C)c1=O` (centres unmarked) [compound 236, 5-(4-(3-(4-(5-chloro-4-((1-methyl-2-oxo-3-(2-oxopropoxy)-1,2-dihydroquinolin-6-yl)amino)pyrimidin-2-yl)piperazin-1-yl)propyl)piperazin-1-yl)-2-(2,6-dioxopiperidin-3-yl)isoindoline-1,3-dione], for which the EC50 in assay [1] is less than 10 nM. In assay [2], the IC50 fell in the range of 10 to 50 nM and the Dmax lay within 50 to 70%.

In assay [1], `CNC(=O)COc1cc2cc(Nc3nc(N4CCC[C@H](COc5ccc6c(c5)C(=O)N(C5CCC(=O)NC5=O)C6=O)C4)ncc3Cl)ccc2n(C)c1=O` (stereo partly drawn) [compound 237, 2-((6-((5-chloro-2-((3S)-3-(((2-(2,6-dioxopiperidin-3-yl)-1,3-dioxoisoindolin-5-yl)oxy)methyl)piperidin-1-yl)pyrimidin-4-yl)amino)-1-methyl-2-oxo-1,2-dihydroquinolin-3-yl)oxy)-N-methylacetamide] registered a concentration for a half-maximal effect (EC50) of 10 to 50 nM. In assay [2], this compound came in with an IC50 of 10 to 50 nM and a Dmax of less than 50%.

In assay [1], `CNC(=O)COc1cc2cc(Nc3nc(N4CCN(C(C)(C)C5CCN(c6ccc7c(c6)CN(C6CCC(=O)NC6=O)C7=O)CC5)CC4)ncc3Cl)ccc2n(C)c1=O` (centres unmarked) [compound 270, 2-{[6-({5-chloro-2-[4-(2-{1-[2-(2,6-dioxopiperidin-3-yl)-1-oxo-2,3-dihydro-1H-isoindol-5-yl]piperidin-4-yl}propan-2-yl)piperazin-1-yl]pyrimidin-4-yl}amino)-1-methyl-2-oxo-1,2-dihydroquinolin-3-yl]oxy}-N-methylacetamide] registered a concentration for a half-maximal effect (EC50) of 10 to 50 nM. In assay [2], the IC50 was less than 10 nM and the Dmax was no less than 70%.

On to `CNC(=O)COc1cc2cc(Nc3nc(N4CCOC(CN5CCN(c6cccc7c6C(=O)N(C6CCC(=O)NC6=O)C7=O)CC5)C4)ncc3Cl)ccc2n(C)c1=O` (centres unmarked) [compound 271, 2-{[6-({5-chloro-2-[2-({4-[2-(2,6-dioxopiperidin-3-yl)-1,3-dioxo-2,3-dihydro-1H-isoindol-4-yl]piperazin-1-yl}methyl)morpholin-4-yl]pyrimidin-4-yl}amino)-1-methyl-2-oxo-1,2-dihydroquinolin-3-yl]oxy}-N-methylacetamide], for which the EC50 in assay [1] fell in the range of 10 to 50 nM. In assay [2], this compound yielded a 50% inhibitory concentration (IC50) of 50 to 100 nM and a Dmax of 50 to 70%.

The compound `CNC(=O)COc1cc2cc(Nc3nc(N4CCOC(CN5CCN(c6ccc7c(c6)C(=O)N(C6CCC(=O)NC6=O)C7=O)CC5)C4)ncc3Cl)ccc2n(C)c1=O` (centres unmarked) [compound 272, 2-{[6-({5-chloro-2-[2-({4-[2-(2,6-dioxopiperidin-3-yl)-1,3-dioxo-2,3-dihydro-1H-isoindol-5-yl]piperazin-1-yl}methyl)morpholin-4-yl]pyrimidin-4-yl}amino)-1-methyl-2-oxo-1,2-dihydroquinolin-3-yl]oxy}-N-methylacetamide] showed an EC50 in assay [1] of less than 10 nM. Further, in assay [2], the half-inhibitory concentration (IC50) was in the range of 10 to 50 nM and the Dmax fell in the range of 50 to 70%.

`CNC(=O)COc1cc2cc(Nc3nc(N4CCN(CC5CCN(c6cnc(C(=O)NC7CCC(=O)NC7=O)nc6)CC5)CC4)ncc3Cl)ccc2n(C)c1=O` (centres unmarked) [compound 273, 5-[4-({4-[5-chloro-4-({1-methyl-3-[(methylcarbamoyl)methoxy]-2-oxo-1,2-dihydroquinolin-6-yl}amino)pyrimidin-2-yl]piperazin-1-yl}methyl)piperidin-1-yl]-N-(2,6-dioxopiperidin-3-yl)pyrimidine-2-carboxamide]: the EC50 in assay [1] fell in the range of 10 to 50 nM. In assay [2], the IC50 was in the range of 50 to 100 nM and the greatest degradation seen (Dmax) is less than 50%.

The compound `CNC(=O)C1Oc2cc(Nc3nc(N4CCN(C(C)(C)C5CCN(c6ccc7c(c6)C(=O)N(C6CCC(=O)NC6=O)C7=O)CC5)CC4)ncc3Cl)ccc2N(C)C1=O` (centres unmarked) [compound 274, 7-({5-chloro-2-[4-(2-{1-[2-(2,6-dioxopiperidin-3-yl)-1,3-dioxo-2,3-dihydro-1H-isoindol-5-yl]piperidin-4-yl}propan-2-yl)piperazin-1-yl]pyrimidin-4-yl}amino)-N,4-dimethyl-3-oxo-3,4-dihydro-2H-1,4-benzoxazine-2-carboxamide] yielded a 50% effective concentration (EC50) in assay [1] greater than 100 nM. In assay [2], the IC50 was no less than 100 nM.

Take `CNC(=O)COc1cc2cc(Nc3nc(N4CCN(CC5CCN(c6cccc(F)c6C(=O)NC6CCC(=O)NC6=O)CC5)CC4)ncc3Cl)ccc2n(C)c1=O` (centres unmarked) [compound 275, 2-[4-({4-[5-chloro-4-({1-methyl-3-[(methylcarbamoyl)methoxy]-2-oxo-1,2-dihydroquinolin-6-yl}amino)pyrimidin-2-yl]piperazin-1-yl}methyl)piperidin-1-yl]-N-(2,6-dioxopiperidin-3-yl)-6-fluorobenzamide]: in assay [1], the EC50 lay in the range of 10 to 50 nM. In assay [2], the concentration for half-maximal inhibition (IC50) is less than 10 nM and the greatest degradation seen (Dmax) was less than 50%.

`CNC(=O)COc1cc2cc(Nc3nc(N4CCN(CC5CCN(c6ccc(C(=O)NC7CCC(=O)NC7=O)cc6)CC5)CC4)ncc3Cl)ccc2n(C)c1=O` (centres unmarked) [compound 276, 4-[4-({4-[5-chloro-4-({1-methyl-3-[(methylcarbamoyl)methoxy]-2-oxo-1,2-dihydroquinolin-6-yl}amino)pyrimidin-2-yl]piperazin-1-yl}methyl)piperidin-1-yl]-N-(2,6-dioxopiperidin-3-yl)benzamide] gave a 50% effective concentration (EC50) in assay [1] of less than 10 nM. In assay [2], this compound gave an IC50 of no less than 100 nM and a Dmax of less than 50%.

These data come from US12310975B2, “Modulators of BCL6 proteolysis and associated methods of use” (Arvinas Operations, Inc., priority 2019, dated 2025).
